Experimental data: the SangsterLogP compilation

How the values were obtained:
[1] = not given; remark: listed apart in the source
[2] = method code SF-HPLC, from DOI: 10.1002/jps.2600830510, PMID: 8071813
[3] = not given; remark: listed apart in the source
[4] = not given; remark: listed apart in the source
[5] = not given; remark: listed apart in the source
[6] = not given; remark: listed apart in the source
[7] = method code SF-HPLC, from DOI: 10.1016/j.ijpharm.2010.12.025, PMID: 21185925
[8] = not given; remark: listed apart in the source
[9] = not given; remark: listed apart in the source
[10] = not given; remark: listed apart in the source
[11] = method code SF, from DOI: 10.1111/j.1365-2958.1992.tb00853.x, PMID: 1640833
[12] = method code SF, from DOI: 10.1021/bk-1995-0606.ch008
[13] = method code SF, from DOI: 10.1021/jm00123a006, PMID: 2918500; details: pH 7.4
[14] = not given; remark: listed apart in the source
[15] = not given; remark: listed apart in the source
[16] = not given; remark: listed apart in the source
[17] = not given; remark: listed apart in the source
[18] = not given; remark: listed apart in the source
[19] = method code SF-RC, from DOI: 10.1016/j.ejmech.2016.07.069, PMID: 27565554; details: pH 7.4
[20] = not given; remark: listed apart in the source
[21] = not given; remark: listed apart in the source
[22] = method code SF-RC, from DOI: 10.1002/jlcr.1930
[23] = not given; remark: listed apart in the source
[24] = method code SF, from DOI: 10.1016/j.bmcl.2012.08.112, PMID: 23010264; details: pH 7.4
[25] = not given; remark: listed apart in the source
[26] = method code SF-AS, from DOI: 10.1016/0048-3575(88)90061-2
[27] = method code SF-HPLC, from DOI: 10.1016/s0223-5234(02)01360-0, PMID: 12008054; details: pH 7.4
[28] = method code SF-HPLC, from Liang, J.; Deng, J. (2011). Determination of n-octanol/wanter Partition Coefficient of Mangiferin. West China Journal of Pharmaceutical Sciences, 26(2)193-195.; details: pH 2.5
[29] = from Kyomura, N., Fukuchi, T., Kohyama, Y., & Motojima, S. (1990). Biological characteristics of new acaricide MK-239. In Brighton Crop Protection Conference, Pests and Diseases - 1990 (Vol. 1, pp. …
[30] = method code SF-HPLC, from DOI: 10.1002/jps.2600840622; details: pH 7.0
[31] = method code SF-RC, from DOI: 10.1111/j.2042-7158.1981.tb11724.x
[32] = method code SF-AS, from DOI: 10.1021/jm00392a004, PMID: 3625703; details: pH 6.9
[33] = method code SF-HPLC, from PMID: 11745753; details: pH 11.0
[34] = not given; remark: listed apart in the source
[35] = method code SF-RC, from DOI: 10.1016/j.bmcl.2015.05.048, PMID: 26073008; details: pH 7.4
[36] = method code SF, from DOI: 10.1007/bf02222191, PMID: 2473627
[37] = method code SF-AS, from PMID: 4096735; details: pH 7.4
[38] = not given; remark: listed apart in the source
[39] = method code SF-RC, from Godoy, N.; Valle, L.; Mena, P.; Gil, M. (1989). Synthesis, labeling and biodistribution of 99mTc-labelled bromoimino diacetic acids. Nucleotecnica, 9(17)25-32.
[40] = method code SF-HPLC, from DOI: 10.1211/0022357011778025, PMID: 11732751; details: pH 5.0
[41] = method code SF, from DOI: 10.1248/cpb.35.4144, PMID: 3435941; details: pH 6.8
[42] = method code SF-HPLC, from DOI: 10.1002/jps.23218, PMID: 22644947; details: pH 7.0
[43] = method code SF-AS, from DOI: 10.1002/pauz.19770060602

CN1CCN(CC(=O)N2c3ccccc3C(=O)Nc3cccnc32)CC1
logP: 0.1

CC(C)(Oc1ccccc1)C(=O)N[C@@H]1C(=O)N2[C@@H]1SC(C)(C)[C@@H]2C(=O)O
logP [1]: 2.76

O=C(OCCN1CCOCC1)c1ccccc1Nc1c(Cl)cccc1Cl
logP [2]: 2.72

CNCCC=C1c2ccccc2CCc2ccccc21
logP [3]: 4.4

COc1ccc2c3c1O[C@H]1[C@@H](O)C=C[C@H]4[C@@H](C2)N(C)CC[C@@]341
logP [4]: 1.22

CC(C)CC(O)C(O)C(CC1CCCCC1)NC(=O)OC(C)(C)C (centres undefined)
logP [5]: 3.98

C[C@H]1[C@H](N2CCS(=O)(=O)CC2)O[C@@H]2O[C@@]3(C)CC[C@H]4[C@H](C)CC[C@@H]1[C@@]24OO3
logP [6]: 2.49

CCCc1nc(C[C@H](NC(=O)[C@@H]2CCC(=O)N2)C(=O)N2CCC[C@H]2C(N)=O)c[nH]1
logP [7]: -1.07

CO[C@H]1C[C@]2(C)[C@@H](O)CC[C@H]2[C@@H]2CCc3cc(O)ccc3[C@H]21
logP [8]: 2.72

CC12CCC3c4ccc(O)cc4CCC3C1CC(F)C2O (centres undefined)
logP [9]: 2.98

CC[C@@H](c1ccc(O)cc1)[C@H](CCF)c1ccc(O)cc1
logP [10]: 4.03

C[C@]12CCC(=O)C[C@@H]1CC[C@@H]1[C@@H]2CC[C@]2(C)C(=O)CC[C@@H]12
logP [11]: 3.6

O=C(Nc1ccc(F)cc1F)c1cccnc1Oc1cccc(C(F)(F)F)c1
logP [12]: 4.49

[N-]=[N+]=Nc1ccc(CCN2CCN(c3cccc(C(F)(F)F)c3)CC2)cc1I
logD [13]: 3.33

COc1cc2c(cc1O)CC[C@@H]1C2CC[C@]2(C)[C@@H](O)CC[C@@H]12 (stereo in doubt)
logP [14]: 2.86

Cc1onc(-c2ccccc2)c1C(=O)NC1C(=O)N2C1SC(C)(C)C2C(=O)O (centres undefined)
logP [15]: 2.34

Cc1ccc(/C(=C\CN2CCCC2)c2ccccn2)cc1
logP [16]: 3.87

CC(C)(C)NCC(COc1nsnc1N1CCOCC1)OC(=O)C1CCC1 (centres undefined)
logP [17]: 2.36

CC1N=C2C3CC(c4ccccc4)CCC3C=CN2C1C (centres undefined)
logP [18]: 3.9

COc1cc2c(cc1I)C/C(=C\c1ccc(N(C)C)cc1)C2=O
logD [19]: 3.45

Cc1ccccc1C(OCCN(C)C)c1ccccc1 (centres undefined)
logP [20]: 3.77

CCN(CC)CCCN1c2ccccc2Sc2ccc(Cl)cc21
logP [21]: 6.46

COc1cc2c(cc1OS(N)(=O)=O)CC[C@@H]1[C@@H]2CC[C@]2(C)[C@@H](OS(N)(=O)=O)CC[C@@H]12
logP [22]: 2.25

O=S(=O)(c1ccc(F)cc1)C1CCN(CCc2ccc(F)cc2F)CC1
logP [23]: 2.47

COCC(C1CC1)n1cc(Cl)nc(Nc2cc(C)c(OC)cc2C)c1=O (centres undefined)
logD [24]: 4.4

O=C(NN1C(=O)[C@@H]2[C@@H]3C=C[C@@H]([C@H]4C[C@@H]34)[C@@H]2C1=O)c1ccc(C(F)(F)F)cc1
logP [25]: 2.36

O=C(NC(=O)c1c(F)cccc1F)Nc1ccc(Oc2ncc(Cl)cc2Cl)cc1
logP [26]: 3.27

COc1cc2nc(N3CCN(C(=O)C4CCCO4)CC3)nc(N)c2cc1OC (centres undefined)
logD [27]: 1.14

O=c1c2cc(O)c(O)cc2oc2cc(O)c([C@@H]3O[C@H](CO)[C@@H](O)[C@H](O)[C@H]3O)c(O)c12
logD [28]: 0.36

CCc1nn(C)c(C(=O)NCc2ccc(C(C)(C)C)cc2)c1Cl
logP [29]: 4.61

CCN1CCN(c2cc3c(cc2F)c(=O)c(C(=O)O)cn3CC)CC1
logD [30]: 0.37

CCC(=O)O[C@H]1CC[C@H]2[C@@H]3CCC4=CC(=O)CC[C@]4(C)[C@H]3CC[C@]12C
logP [31]: 3.72

CCCCCCCCCC1(c2ccncc2)CCC(=O)NC1=O (centres undefined)
logD [32]: 4.64

CCCCN1CCCCC1C(=O)Nc1c(C)cccc1C (centres undefined)
logD [33]: 3.35

C=CCN1CC[C@@]23CCCC[C@H]2[C@@H]1Cc1ccc(O)cc13
logP [34]: 3.48

COc1ccc(/C=C/c2cc(=O)c3cc(I)ccc3o2)cc1OC
logD [35]: 2.14

CC(C)NCC(O)COc1ccccc1C1CCCCC1 (centres undefined)
logP [36]: 2.86

CCOC(=O)CCCCOc1ccc(-c2nc3c(N)nc(N)nc3nc2N)cc1
logD [37]: 0.8

COC(=O)c1cc(OC)c2c(c1-c1c(CO)cc(OC)c3c1OCO3)OCO2
logP [38]: 1.7

CC(C)c1ccc(Br)c(C(C)C)c1NC(=O)CN(CC(=O)O)CC(=O)O
logP [39]: 0.2

CCN(CC)C(=O)C(C#N)=Cc1cc(OC(=O)C(C)(C)C)c(O)c([N+](=O)[O-])c1
logD [40]: 2.24

COC(=O)C1=C(C)NC(C)=C(P2(=O)OCCCO2)C1c1ccccc1[N+](=O)[O-] (centres undefined)
logD [41]: 1.3

CCOC(=O)N(CCN(C(=O)OCC)C(=O)OCC)CCN(C(=O)OCC)C(=O)OCC
logD [42]: 2.3

O=C1CN=C(c2ccccc2)c2cc(Cl)ccc2N1CC1CC1
logP [43]: 3.31
